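The compound was tested at five concentrations on cells cultured in 96-well plates, with a 48-hour exposure period. GI50 marks 50% less growth. TGI: total growth inhibition.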
Key:
Assay in all cases: NCI anticancer screen, dose series, 48 h
[1] = test system: OVCAR-8 ovarian
[2] = test system: RPMI-8226 leukemia
[3] = test system: HL-60(TB) leukemia
[4] = test system: PC-3 prostate
[5] = test system: NCI-H23 lung
[6] = test system: CAKI-1 renal
[7] = test system: U251 CNS
[8] = test system: MALME-3M melanoma
[9] = test system: OVCAR-3 ovarian
[10] = test system: SK-MEL-5 melanoma
[11] = test system: SN12C renal
[12] = test system: TK-10 renal
[13] = test system: SR leukemia
[14] = test system: MOLT-4 leukemia
[15] = test system: RXF 393 renal
[16] = test system: NCI-H522 lung
[17] = test system: LOX IMVI melanoma
[18] = test system: SK-MEL-2 melanoma
[19] = test system: UO-31 renal
[20] = test system: MCF7 breast
[21] = test system: SK-OV-3 ovarian
[22] = test system: IGROV1 ovarian
[23] = test system: HCC-2998 colon
[24] = test system: SF-268 CNS
[25] = test system: EKVX NSCLC
[26] = test system: A498 renal
[27] = test system: SF-539 CNS
[28] = test system: BT-549 breast
[29] = test system: HOP-92 NSCLC
[30] = test system: HT29 colon
[31] = test system: COLO 205 colon
[32] = test system: NCI-H460 lung
[33] = test system: A549 NSCLC
[34] = test system: K-562 leukemia
[35] = test system: HOP-62 NSCLC
[36] = test system: SK-MEL-28 melanoma
[37] = test system: SNB-75 CNS
[38] = test system: OVCAR-4 ovarian
[39] = test system: 786-0 renal
[40] = test system: UACC-257 melanoma
[41] = test system: SNB-19 CNS
[42] = test system: DU-145 prostate
[43] = test system: KM12 colon
[44] = test system: NCI/ADR-RES ovarian
[45] = test system: ACHN renal
[46] = test system: HS 578T breast
[47] = test system: UACC-62 melanoma
[48] = test system: HCT-116 colon
[49] = test system: SF-295 CNS
[50] = test system: NCI-H226 lung
[51] = test system: HCT-15 colon
[52] = test system: SW-620 colon
[53] = test system: OVCAR-5 ovarian
[54] = test system: MDA-MB-231 breast
[55] = test system: MDA-MB-435
[56] = test system: T-47D breast
[57] = test system: CCRF-CEM leukemia

SMILES: CCOC(=O)c1c(NC(=O)c2ccc(C(F)(F)F)cc2)sc2c(CN3CCN(C)CC3)c(O)ccc12
- GI50 [1]: 2140 nM
- TGI [1]: 4.77 µM
- GI50 [2]: 1730 nM
- TGI [2]: 3.95 µM
- GI50 [3]: 1780 nM
- TGI [3]: 3.94 µM
- GI50 [4]: 1690 nM
- TGI [4]: 3.22 µM
- GI50 [5]: 2110 nM
- TGI [5]: 4.73 µM
- GI50 [6]: 1650 nM
- TGI [6]: 3.16 µM
- GI50 [7]: 1790 nM
- TGI [7]: 3.37 µM
- GI50 [8]: 1990 nM
- TGI [8]: 4.28 µM
- GI50 [9]: 1750 nM
- TGI [9]: 3.17 µM
- GI50 [10]: 3.03 µM
- TGI [10]: 10.1 µM
- GI50 [11]: 1760 nM
- TGI [11]: 3.44 µM
- GI50 [12]: 1620 nM
- TGI [12]: 3.16 µM
- GI50 [13]: 1110 nM
- TGI [13]: 3.42 µM
- GI50 [14]: 1740 nM
- TGI [14]: 4 µM
- GI50 [15]: 1590 nM
- TGI [15]: 3.81 µM
- GI50 [16]: 2190 nM
- TGI [16]: 5.56 µM
- GI50 [17]: 1780 nM
- TGI [17]: 3.19 µM
- GI50 [18]: 2210 nM
- TGI [18]: 5 µM
- GI50 [19]: 1510 nM
- TGI [19]: 2950 nM
- GI50 [20]: 1820 nM
- TGI [20]: 3.65 µM
- GI50 [21]: 1930 nM
- TGI [21]: 4.21 µM
- GI50 [22]: 1790 nM
- TGI [22]: 3.47 µM
- GI50 [23]: 1710 nM
- TGI [23]: 3.23 µM
- GI50 [24]: 1870 nM
- TGI [24]: 4.01 µM
- GI50 [25]: 2620 nM
- TGI [25]: 8.15 µM
- GI50 [26]: 1630 nM
- TGI [26]: 3.3 µM
- GI50 [27]: 1630 nM
- TGI [27]: 3.02 µM
- GI50 [28]: 1850 nM
- TGI [28]: 4.15 µM
- GI50 [29]: 1360 nM
- TGI [29]: 3.11 µM
- GI50 [30]: 1830 nM
- TGI [30]: 3.68 µM
- GI50 [31]: 1870 nM
- TGI [31]: 3.76 µM
- GI50 [32]: 1770 nM
- TGI [32]: 3.38 µM
- GI50 [33]: 1850 nM
- TGI [33]: 3.85 µM
- GI50 [34]: 1130 nM
- TGI [34]: 5.86 µM
- GI50 [35]: 1820 nM
- TGI [35]: 3.99 µM
- GI50 [36]: 1730 nM
- TGI [36]: 3.16 µM
- GI50 [37]: 2050 nM
- TGI [37]: 4.92 µM
- GI50 [38]: 2050 nM
- TGI [38]: 4.43 µM
- GI50 [39]: 1550 nM
- TGI [39]: 3.32 µM
- GI50 [40]: 2120 nM
- TGI [40]: 4.98 µM
- GI50 [41]: 1790 nM
- TGI [41]: 3.48 µM
- GI50 [42]: 1970 nM
- TGI [42]: 3.79 µM
- GI50 [43]: 1790 nM
- TGI [43]: 3.34 µM
- GI50 [44]: 1920 nM
- TGI [44]: 3.83 µM
- GI50 [45]: 1810 nM
- TGI [45]: 3.21 µM
- GI50 [46]: 1990 nM
- TGI [46]: 4.52 µM
- GI50 [47]: 1790 nM
- TGI [47]: 3.59 µM
- GI50 [48]: 1680 nM
- TGI [48]: 3.34 µM
- GI50 [49]: 1940 nM
- TGI [49]: 3.98 µM
- GI50 [50]: 1950 nM
- TGI [50]: 4.07 µM
- GI50 [51]: 1740 nM
- TGI [51]: 3.5 µM
- GI50 [52]: 1710 nM
- TGI [52]: 3.2 µM
- GI50 [53]: 1770 nM
- TGI [53]: 3.19 µM
- GI50 [54]: 1860 nM
- TGI [54]: 3.56 µM
- GI50 [55]: 1730 nM
- TGI [55]: 3.12 µM
- GI50 [56]: 1840 nM
- TGI [56]: 4.54 µM
- GI50 [57]: 1950 nM
- TGI [57]: 4.77 µM
